Laboratory results from EPA's ToxValDB 9.5 (doi:10.2903/j.efsa.2010.1542).
In brackets after ≈: the same amount, converted by molar mass.

What was measured:
Apis mellifera = conditions: acute; duration: 48 hours; oral; unspecified; mortality
Bibionidae = conditions: chronic/long-term; duration: 28 days
Canidae = conditions: chronic; duration: 1 years; oral; Dog Other; organ weight
Daphnia magna = conditions: chronic/long-term; duration: 21 days; reproduction
Oncorhynchus mykiss = conditions: acute; duration: 96 hours; mortality
Pimephales promelas = conditions: chronic/long-term; duration: 33 days; growth
Rattus norvegicus = conditions: for NOAEL: organ weight
Aphidius rhopalosiphi = experiment: LR50; higher = less toxic; conditions: not reported; mortality

SMILES: CO/C=C(/C(=O)OC)c1ccccc1Oc1cc(Oc2ccccc2C#N)ncn1 [Azoxystrobin]
- LD50 (Apis mellifera): > 25 µg/piece
- NOEC (Bibionidae): 0.8 mg/L
- NOAEL (Canidae): 25 mg/kg-day
- LC50 (Colinus virginianus; acute, oral, diet, mortality): > 5200 mg/kg-day
- LD50 (Colinus virginianus; acute, oral, mortality): > 2000 mg/kg-day
- NOEC (Colinus virginianus; reproduction developmental): 1200 mg/kg-day
- NOEC (Daphnia magna): 0.044 mg/L
- LC50 (Oncorhynchus mykiss): 0.47 µg/mL (≈ 1.17 µM)
- NOEC (Pimephales promelas): 0.147 mg/L
- LD50 (Rattus norvegicus; acute, oral, mortality): > 5000 mg/kg-day
- NOAEL (Rattus norvegicus; chronic, duration: 2 years, oral, diet): 18 mg/kg-day
- NOEL (Rattus norvegicus; reproduction developmental, body weight): 32 mg/kg-day
- NOAEL (Rattus norvegicus; subchronic, duration: 90 days, oral): 21 mg/kg-day
- LC50 (Tagia sp.; acute, duration: 14 days, mortality): 283 mg/kg
- NOEC (Tagia sp.; chronic/long-term, duration: 56 days): 3 mg/kg
- LR50 (Aphidius rhopalosiphi): > 1000 g/ha
